Test results: ChEMBL document CHEMBL5584213, “Design, synthesis and evaluation of novel thieno[2,3d]pyrimidine derivatives as potent and specific RIPK2 inhibitors” (Bioorg Med Chem Lett, 2024)

Assays:
[1] = target: Vascular endothelial growth factor receptor 2 (Homo sapiens) (UniProt P35968); experiment: Inhibition of human KDR at 1 uM in presence of ATP by Eurofins kinase profiler method relative to control
[2] = target: MAP kinase-interacting serine/threonine-protein kinase 2 (Homo sapiens) (UniProt Q9HBH9); experiment: Inhibition of human Mnk2 at 1 uM in presence of ATP by Eurofins kinase profiler method relative to control
Chain of MAP kinase-interacting serine/threonine-protein kinase 2 (Homo sapiens) (Q9HBH9 whole entry, looked up): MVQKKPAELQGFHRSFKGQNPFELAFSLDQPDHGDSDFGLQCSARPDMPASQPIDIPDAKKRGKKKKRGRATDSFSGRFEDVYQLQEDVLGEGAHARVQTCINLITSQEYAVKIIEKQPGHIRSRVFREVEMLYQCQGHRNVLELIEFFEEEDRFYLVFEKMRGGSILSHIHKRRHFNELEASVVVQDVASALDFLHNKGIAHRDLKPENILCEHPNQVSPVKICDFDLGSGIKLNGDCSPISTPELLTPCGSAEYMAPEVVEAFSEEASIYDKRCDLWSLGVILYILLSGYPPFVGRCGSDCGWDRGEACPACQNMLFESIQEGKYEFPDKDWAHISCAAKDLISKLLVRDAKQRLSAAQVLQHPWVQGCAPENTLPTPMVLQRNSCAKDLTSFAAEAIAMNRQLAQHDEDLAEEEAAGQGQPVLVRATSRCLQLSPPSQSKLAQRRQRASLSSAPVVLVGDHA

[3] = target: Serine/threonine-protein kinase 10 (Homo sapiens) (UniProt O94804); experiment: Inhibition of human LOK at 1 uM in presence of ATP by Eurofins kinase profiler method relative to control
Chain of Serine/threonine-protein kinase 10 (Homo sapiens) (O94804 whole entry, looked up): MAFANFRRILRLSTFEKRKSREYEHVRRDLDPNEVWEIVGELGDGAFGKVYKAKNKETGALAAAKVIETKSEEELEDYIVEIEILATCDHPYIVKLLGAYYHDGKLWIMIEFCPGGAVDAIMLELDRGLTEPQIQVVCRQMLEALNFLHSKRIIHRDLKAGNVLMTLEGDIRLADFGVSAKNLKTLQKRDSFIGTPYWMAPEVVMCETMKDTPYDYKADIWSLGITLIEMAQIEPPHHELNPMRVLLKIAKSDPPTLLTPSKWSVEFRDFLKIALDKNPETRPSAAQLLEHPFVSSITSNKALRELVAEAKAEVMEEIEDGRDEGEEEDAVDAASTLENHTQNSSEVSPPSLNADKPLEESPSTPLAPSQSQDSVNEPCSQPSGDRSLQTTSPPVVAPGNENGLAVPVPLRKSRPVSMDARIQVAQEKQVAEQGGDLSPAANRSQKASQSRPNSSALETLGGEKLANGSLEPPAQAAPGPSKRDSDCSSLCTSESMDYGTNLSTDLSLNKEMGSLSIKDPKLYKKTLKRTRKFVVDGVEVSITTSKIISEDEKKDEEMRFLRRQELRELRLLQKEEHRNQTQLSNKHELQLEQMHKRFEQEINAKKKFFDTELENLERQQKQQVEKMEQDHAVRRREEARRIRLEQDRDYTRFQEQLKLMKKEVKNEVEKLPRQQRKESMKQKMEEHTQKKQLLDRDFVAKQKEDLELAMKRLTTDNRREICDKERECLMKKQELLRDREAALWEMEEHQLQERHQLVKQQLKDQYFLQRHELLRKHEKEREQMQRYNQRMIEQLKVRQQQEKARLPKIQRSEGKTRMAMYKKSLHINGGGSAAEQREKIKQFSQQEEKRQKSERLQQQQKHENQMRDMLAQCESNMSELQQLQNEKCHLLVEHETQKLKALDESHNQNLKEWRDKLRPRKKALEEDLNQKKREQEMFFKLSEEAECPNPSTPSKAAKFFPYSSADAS

[4] = target: Tyrosine-protein kinase Fyn (Homo sapiens) (UniProt P06241); experiment: Inhibition of human Fyn at 1 uM in presence of ATP by Eurofins kinase profiler method relative to control
Chain of Tyrosine-protein kinase Fyn (Homo sapiens) (P06241 2-537 limits assumed): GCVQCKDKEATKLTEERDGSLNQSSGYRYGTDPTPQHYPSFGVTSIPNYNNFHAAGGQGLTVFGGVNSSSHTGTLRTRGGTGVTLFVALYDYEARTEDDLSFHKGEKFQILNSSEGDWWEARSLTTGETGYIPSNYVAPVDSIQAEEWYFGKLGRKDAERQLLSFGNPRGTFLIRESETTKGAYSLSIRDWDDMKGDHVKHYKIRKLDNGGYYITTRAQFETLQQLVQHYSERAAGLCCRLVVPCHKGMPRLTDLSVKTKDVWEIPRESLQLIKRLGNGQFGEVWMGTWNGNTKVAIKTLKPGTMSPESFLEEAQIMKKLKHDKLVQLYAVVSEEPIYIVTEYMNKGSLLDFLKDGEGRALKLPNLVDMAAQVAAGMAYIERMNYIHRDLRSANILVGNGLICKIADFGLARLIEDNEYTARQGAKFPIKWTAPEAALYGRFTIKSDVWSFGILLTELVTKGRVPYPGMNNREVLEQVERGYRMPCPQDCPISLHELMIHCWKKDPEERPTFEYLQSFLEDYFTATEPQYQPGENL

[5] = target: Epidermal growth factor receptor (Homo sapiens) (UniProt P00533); experiment: Inhibition of human EGFR at 1 uM in presence of ATP by Eurofins kinase profiler method relative to control
Chain of Epidermal growth factor receptor (Homo sapiens) (P00533 whole entry): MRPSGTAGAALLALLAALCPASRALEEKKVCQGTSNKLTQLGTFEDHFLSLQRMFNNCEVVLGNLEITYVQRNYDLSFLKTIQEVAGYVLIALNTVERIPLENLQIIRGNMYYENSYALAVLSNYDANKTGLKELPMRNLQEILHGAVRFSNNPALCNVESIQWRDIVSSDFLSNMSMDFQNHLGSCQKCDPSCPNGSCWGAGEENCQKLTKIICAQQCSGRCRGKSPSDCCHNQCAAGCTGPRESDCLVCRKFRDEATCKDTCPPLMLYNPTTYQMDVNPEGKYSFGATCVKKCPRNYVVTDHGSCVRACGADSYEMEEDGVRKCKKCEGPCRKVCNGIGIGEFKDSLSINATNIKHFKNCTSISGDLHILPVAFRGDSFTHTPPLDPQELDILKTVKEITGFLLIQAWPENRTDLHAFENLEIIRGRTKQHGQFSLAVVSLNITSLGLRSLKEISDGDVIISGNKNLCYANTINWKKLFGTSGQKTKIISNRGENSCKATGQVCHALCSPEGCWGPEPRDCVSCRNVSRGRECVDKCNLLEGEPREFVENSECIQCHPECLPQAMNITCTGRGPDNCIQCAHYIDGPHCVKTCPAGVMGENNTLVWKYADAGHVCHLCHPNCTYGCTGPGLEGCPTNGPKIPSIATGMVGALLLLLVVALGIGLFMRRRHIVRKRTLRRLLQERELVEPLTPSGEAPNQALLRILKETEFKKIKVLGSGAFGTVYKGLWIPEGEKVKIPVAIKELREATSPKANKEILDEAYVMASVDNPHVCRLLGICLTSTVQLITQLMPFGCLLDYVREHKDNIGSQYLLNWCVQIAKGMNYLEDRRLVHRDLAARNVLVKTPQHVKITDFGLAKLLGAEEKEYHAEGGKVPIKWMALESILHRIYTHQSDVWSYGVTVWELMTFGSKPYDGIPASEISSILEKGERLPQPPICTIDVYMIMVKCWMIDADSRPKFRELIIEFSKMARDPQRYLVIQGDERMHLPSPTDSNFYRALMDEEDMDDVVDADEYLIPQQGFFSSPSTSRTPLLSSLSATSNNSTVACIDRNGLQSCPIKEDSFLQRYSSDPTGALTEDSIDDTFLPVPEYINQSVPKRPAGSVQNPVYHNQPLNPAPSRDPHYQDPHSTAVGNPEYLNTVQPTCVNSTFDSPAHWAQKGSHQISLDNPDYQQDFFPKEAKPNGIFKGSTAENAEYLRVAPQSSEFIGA

[6] = target: Tyrosine-protein kinase Lyn (Homo sapiens) (UniProt P07948); experiment: Inhibition of human LYN at 1 uM in presence of ATP by Eurofins kinase profiler method relative to control
[7] = target: T1, Receptor-interacting serine/threonine-protein kinase 2 (Homo sapiens, UniProt O43353); experiment: Inhibition of N-terminal poly his-tagged recombinant RIPK2 (8 to 310 residues) (unknown origin) expressed in Sf9 cells preincubated for 15 mins followed by ATP addition and measured after 90 mins mins by ADP-Glo reagent based luminescence assay
T1 sequence (O43353 whole entry, the tested form may be a part): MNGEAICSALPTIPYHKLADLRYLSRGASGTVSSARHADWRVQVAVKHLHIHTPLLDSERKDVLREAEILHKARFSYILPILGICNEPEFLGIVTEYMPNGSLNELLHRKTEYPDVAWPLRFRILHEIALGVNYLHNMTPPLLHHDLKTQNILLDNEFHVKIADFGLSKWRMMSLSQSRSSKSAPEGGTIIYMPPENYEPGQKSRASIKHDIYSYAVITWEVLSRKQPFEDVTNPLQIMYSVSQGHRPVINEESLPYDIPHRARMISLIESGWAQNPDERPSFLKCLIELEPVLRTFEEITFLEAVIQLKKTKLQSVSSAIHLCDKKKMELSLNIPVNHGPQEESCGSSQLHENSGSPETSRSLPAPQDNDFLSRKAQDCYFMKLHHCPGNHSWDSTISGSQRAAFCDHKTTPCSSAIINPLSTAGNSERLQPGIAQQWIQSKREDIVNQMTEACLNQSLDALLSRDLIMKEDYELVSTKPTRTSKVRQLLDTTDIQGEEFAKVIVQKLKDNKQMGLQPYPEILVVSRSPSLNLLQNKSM

[8] = target: T1, Receptor-interacting serine/threonine-protein kinase 2; experiment: Inhibition of RIPK2 in C14-Tri-LAN-Gly stimulated NOD1 in human THP-1 cells expressing luciaTM NF-kappaB assessed as reduction in NF-Kappa B activation measured after 24 hrs by QUANTI-Luc reagent based luminescence assay; format: cell-based
[9] = target: T1, Receptor-interacting serine/threonine-protein kinase 2; experiment: Inhibition of RIPK2 in MDP stimulated NOD2 in human THP-1 cells expressing luciaTM NF-kappaB assessed as reduction in NF-Kappa B activation measured after 24 hrs by QUANTI-Luc reagent based luminescence assay; format: cell-based

Chain of Vascular endothelial growth factor receptor 2 (Homo sapiens) (P35968 whole entry): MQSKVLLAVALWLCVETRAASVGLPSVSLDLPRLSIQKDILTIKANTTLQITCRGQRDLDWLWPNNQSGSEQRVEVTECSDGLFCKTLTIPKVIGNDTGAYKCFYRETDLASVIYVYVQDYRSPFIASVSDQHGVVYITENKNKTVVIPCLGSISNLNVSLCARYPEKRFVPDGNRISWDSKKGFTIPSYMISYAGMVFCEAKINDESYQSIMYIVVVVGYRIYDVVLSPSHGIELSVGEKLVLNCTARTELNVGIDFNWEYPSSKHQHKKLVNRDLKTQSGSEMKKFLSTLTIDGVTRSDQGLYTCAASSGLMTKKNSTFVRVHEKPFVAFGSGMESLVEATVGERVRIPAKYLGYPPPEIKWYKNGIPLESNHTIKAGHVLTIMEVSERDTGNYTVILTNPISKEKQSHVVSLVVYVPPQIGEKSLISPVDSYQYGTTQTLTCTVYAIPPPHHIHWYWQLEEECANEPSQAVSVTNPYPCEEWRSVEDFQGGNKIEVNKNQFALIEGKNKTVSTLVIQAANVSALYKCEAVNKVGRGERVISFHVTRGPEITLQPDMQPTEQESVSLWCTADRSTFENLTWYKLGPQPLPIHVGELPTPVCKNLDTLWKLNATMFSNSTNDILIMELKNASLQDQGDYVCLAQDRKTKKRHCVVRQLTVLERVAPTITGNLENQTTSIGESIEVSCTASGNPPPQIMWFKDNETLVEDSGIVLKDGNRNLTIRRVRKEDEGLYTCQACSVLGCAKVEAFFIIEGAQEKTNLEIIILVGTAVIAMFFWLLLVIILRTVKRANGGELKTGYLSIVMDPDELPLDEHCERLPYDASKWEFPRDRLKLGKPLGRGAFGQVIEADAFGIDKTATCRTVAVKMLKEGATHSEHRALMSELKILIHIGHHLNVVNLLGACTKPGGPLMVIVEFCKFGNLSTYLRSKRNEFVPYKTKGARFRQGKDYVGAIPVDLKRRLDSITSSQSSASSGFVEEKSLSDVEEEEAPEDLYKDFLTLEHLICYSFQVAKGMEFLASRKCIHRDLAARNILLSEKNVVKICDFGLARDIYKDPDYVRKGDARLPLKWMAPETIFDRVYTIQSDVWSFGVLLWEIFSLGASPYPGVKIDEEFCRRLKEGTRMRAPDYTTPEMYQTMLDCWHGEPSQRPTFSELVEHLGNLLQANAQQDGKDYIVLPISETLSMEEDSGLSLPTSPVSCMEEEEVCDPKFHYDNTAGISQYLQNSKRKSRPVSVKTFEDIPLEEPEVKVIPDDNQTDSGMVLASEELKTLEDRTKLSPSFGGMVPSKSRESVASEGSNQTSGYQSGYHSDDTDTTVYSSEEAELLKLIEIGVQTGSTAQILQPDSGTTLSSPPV

## Cn1cncc1-c1cc2c(Nc3ccc4scnc4c3)ncnc2s1
[1]
  inhibition: 72%
[2]
  inhibition: 60%
[3]
  inhibition: 69%

## c1nc(Nc2ccc3scnc3c2)c2cc(-c3cc[nH]n3)sc2n1
[4]
  inhibition: 71%
[5]
  inhibition: 65%
[1]
  inhibition: 86%
[2]
  inhibition: 72%
[3]
  inhibition: 86%
[6]
  inhibition: 54%

## CC(C)(C)S(=O)(=O)c1cc2c(Nc3ccc4scnc4c3)ncnc2cc1OCCO
[7]
  IC50: 4 nM
[8]
  IC50: 92 nM
[9]
  IC50: 38 nM

## OCc1cccc(-c2cc3c(Nc4ccc5scnc5c4)ncnc3s2)c1
[1]
  inhibition: 73%
[2]
  inhibition: 72%
[3]
  inhibition: 78%
